According to PubChem BioAssay AID1259407 (Chemical Carcinogenesis Research Information System (CCRIS), 2018):
Calls of active or inactive are those of the source. The rule behind the calls is not given here.

System: CCRIS mutagenicity, Ames/micronucleus/aberration tests
Assay: CCRIS mutagenicity studies
[1] = Test System: AMES SALMONELLA TYPHIMURIUM, Strain/Indicator: TA98, Metabolic Activation: NONE, Method: STANDARD PLATE
[2] = Test System: AMES SALMONELLA TYPHIMURIUM, Strain/Indicator: TA98, Metabolic Activation: RAT, LIVER, S-9, AROCLOR 1254, Method: STANDARD PLATE
[3] = Test System: AMES SALMONELLA TYPHIMURIUM, Strain/Indicator: TA100, Metabolic Activation: NONE, Method: PREINCUBATION
[4] = Test System: AMES SALMONELLA TYPHIMURIUM, Strain/Indicator: TA100, Metabolic Activation: NONE, Method: STANDARD PLATE
[5] = Test System: Mouse lymphoma, Strain/Indicator: L5178Y (tk+/tk-), Metabolic Activation: Rat, Liver, S-9, Aroclor 1254, Method: Suspension/plate
[6] = Test System: AMES SALMONELLA TYPHIMURIUM, Strain/Indicator: TA98, Metabolic Activation: NONE, Method: PREINCUBATION

## O=C(O)/C=C/c1ccccc1
Test System: AMES SALMONELLA TYPHIMURIUM, Strain/Indicator: TA98, Metabolic Activation: HAMSTER, LIVER, S-9, AROCLOR 1254 (2.5-20%), Method: PREINCUBATION
  mutagenic call: inactive; negative
Test System: AMES SALMONELLA TYPHIMURIUM, Strain/Indicator: TA98, Metabolic Activation: HAMSTER, LIVER, S-9, AROCLOR 1254, Method: STANDARD PLATE
  mutagenic call: inactive; negative
[1]
  mutagenic call: inactive; negative
[2]
  mutagenic call: inactive; negative
Test System: AMES SALMONELLA TYPHIMURIUM, Strain/Indicator: TA100, Metabolic Activation: HAMSTER, LIVER, S-9, AROCLOR 1254 (2.5-20%), Method: PREINCUBATION
  mutagenic call: inactive; negative
Test System: AMES SALMONELLA TYPHIMURIUM, Strain/Indicator: TA100, Metabolic Activation: HAMSTER, LIVER, S-9, AROCLOR 1254, Method: STANDARD PLATE
  mutagenic call: inactive; negative
[3]
  mutagenic call: inactive; negative
[4]
  mutagenic call: inactive; negative
Test System: AMES SALMONELLA TYPHIMURIUM, Strain/Indicator: TA100, Metabolic Activation: RAT, LIVER, S-9, AROCLOR 1254, Method: PREINCUBATION
  mutagenic call: inactive; negative
Test System: AMES SALMONELLA TYPHIMURIUM, Strain/Indicator: TA100, Metabolic Activation: RAT, LIVER, S-9, AROCLOR 1254, Method: STANDARD PLATE
  mutagenic call: inactive; negative
Test System: AMES SALMONELLA TYPHIMURIUM, Strain/Indicator: TA102, Metabolic Activation: HAMSTER, LIVER, S-9, AROCLOR 1254, Method: PREINCUBATION
  mutagenic call: inactive; negative
Test System: AMES SALMONELLA TYPHIMURIUM, Strain/Indicator: TA102, Metabolic Activation: NONE, Method: PREINCUBATION
  mutagenic call: inactive; negative
Test System: AMES SALMONELLA TYPHIMURIUM, Strain/Indicator: TA102, Metabolic Activation: RAT, LIVER, S-9, AROCLOR 1254, Method: PREINCUBATION
  mutagenic call: inactive; negative
Test System: AMES SALMONELLA TYPHIMURIUM, Strain/Indicator: TA1535, Metabolic Activation: HAMSTER, LIVER, S-9, AROCLOR 1254, Method: STANDARD PLATE
  mutagenic call: inactive; negative
Test System: AMES SALMONELLA TYPHIMURIUM, Strain/Indicator: TA1535, Metabolic Activation: NONE, Method: STANDARD PLATE
  mutagenic call: inactive; negative
Test System: AMES SALMONELLA TYPHIMURIUM, Strain/Indicator: TA1535, Metabolic Activation: RAT, LIVER, S-9, AROCLOR 1254, Method: STANDARD PLATE
  mutagenic call: inactive; negative
Test System: AMES SALMONELLA TYPHIMURIUM, Strain/Indicator: TA1537, Metabolic Activation: HAMSTER, LIVER, S-9, AROCLOR 1254, Method: STANDARD PLATE
  mutagenic call: inactive; negative
Test System: AMES SALMONELLA TYPHIMURIUM, Strain/Indicator: TA1537, Metabolic Activation: NONE, Method: STANDARD PLATE
  mutagenic call: inactive; negative
Test System: AMES SALMONELLA TYPHIMURIUM, Strain/Indicator: TA1537, Metabolic Activation: RAT, LIVER, S-9, AROCLOR 1254, Method: STANDARD PLATE
  mutagenic call: inactive; negative
Test System: AMES SALMONELLA TYPHIMURIUM, Strain/Indicator: TA1538, Metabolic Activation: HAMSTER, LIVER, S-9, AROCLOR 1254, Method: STANDARD PLATE
  mutagenic call: inactive; negative
Test System: AMES SALMONELLA TYPHIMURIUM, Strain/Indicator: TA1538, Metabolic Activation: NONE, Method: STANDARD PLATE
  mutagenic call: inactive; negative
Test System: AMES SALMONELLA TYPHIMURIUM, Strain/Indicator: TA1538, Metabolic Activation: RAT, LIVER, S-9, AROCLOR 1254, Method: STANDARD PLATE
  mutagenic call: inactive; negative
Test System: MOUSE LYMPHOMA, Strain/Indicator: L5178Y (TK+/TK-), Metabolic Activation: NONE, Method: SUSPENSION/PLATE
  mutagenic call: active; positive. reevaluation of results: equivocal
[5]
  mutagenic call: inactive; negative

## O[C@H]1C=Cc2cccc3c2[C@@]1(O)c1ccccc1-3
Test System: AMES SALMONELLA TYPHIMURIUM, Strain/Indicator: TM677, Metabolic Activation: NONE, Method: PREINCUBATION
  mutagenic call: inactive; negative
Test System: AMES SALMONELLA TYPHIMURIUM, Strain/Indicator: TM677, Metabolic Activation: RAT, LIVER, POSTMITOCHONDRIAL SUPERNATANT, AROCLOR 1254, Method: PREINCUBATION
  mutagenic call: inactive; negative

## c1cc2c3c(c4c(ccc5ccccc54)cc3c1)[C@H]1O[C@@H]21
[6]
  mutagenic call: active; positive
[1]
  mutagenic call: active; positive
[2]
  mutagenic call: active; positive
Test System: CHINESE HAMSTER OVARY, Strain/Indicator: V-79/6-THIOGUANINE, Metabolic Activation: NONE, Method: FLASK ASSAY
  mutagenic call: active; positive

## Nc1cccc2cccnc12
[6]
  mutagenic call: active; positive
Test System: AMES SALMONELLA TYPHIMURIUM, Strain/Indicator: TA98, Metabolic Activation: RAT, LIVER, S-9, KANECHLOR 500 OR PHENOBARBITAL AND BETA-NAPHTHOFLAVONE, Method: PREINCUBATION
  mutagenic call: active; positive
[3]
  mutagenic call: active; positive
Test System: AMES SALMONELLA TYPHIMURIUM, Strain/Indicator: TA100, Metabolic Activation: RAT, LIVER, S-9, KANECHLOR 500 OR PHENOBARBITAL AND BETA-NAPHTHOFLAVONE, Method: PREINCUBATION
  mutagenic call: active; positive
Test System: AMES SALMONELLA TYPHIMURIUM, Strain/Indicator: TA100, Metabolic Activation: S-9, Method: PREINCUBATION
  mutagenic call: active; positive

## c1ccc(-c2ccnc3c2ccc2c(-c4ccccc4)ccnc23)cc1
Test System: Mouse lymphoma, Strain/Indicator: L5178Y (tk+/tk-), Metabolic Activation: None, Method: Suspension/plate
  mutagenic call: active; positive
[5]
  mutagenic call: equivocal

## Cn1c2ccccc2c2cc([N+](=O)[O-])ccc21
[1]
  mutagenic call: active; positive
Test System: AMES SALMONELLA TYPHIMURIUM, Strain/Indicator: TA98, Metabolic Activation: RAT LIVER S-9, AROCLOR 1254, Method: STANDARD PLATE
  mutagenic call: active; positive
[4]
  mutagenic call: active; positive
Test System: AMES SALMONELLA TYPHIMURIUM, Strain/Indicator: TA100, Metabolic Activation: RAT LIVER S-9, AROCLOR 1254, Method: STANDARD PLATE
  mutagenic call: active; positive
